Measurements as given in patent US6774131B1, “Remedies for endothelin-induced diseases” (Yamanouchi Pharmaceutical Co., Ltd., priority 2000, dated 2004).

Tests used:
[1] = test system: MC3T3-E1, mouse osteoblast-like cells; experiment: ET-1-induced cell number increase in MC3T3-E1 (cell counting kit, WST-1); type: cell-based
Method: MC3T3-E1, mouse osteoblast-like cells, was used in these experiments (Journal of Cell Biology,96(1),191-198,1983).
Cell number was counted by using a reagent solution of a cell counting kit (DOJINDO). The cells were seeded at a density of 1.0×10^4 cells/well in a 24-well plate using 0.5% FCS culture medium and cultured for one day. Subsequently, vehicle or ET-1 was added to the plate and cultured for 72 hours. Continuously, a reagent solution was added at 100 μl/well to the culture and incubated at 37° C. for 3 hours. After this reaction, 200-μl portions were transferred from the individual wells of the 24-well plate to a 96-well plate, to measure the absorbance (at a wave length of 405 nm and a reference wave length of 650 nm) with a plate reader. As a control, the count of a culture to which the vehicle was added was defined 100%, thus the percentage increase of cell number was calculated. […]
The results are shown in the form of mean±standard error. The significant difference between groups was analyzed by one-way analysis of variance, to calculate the p-values by the Dunnett's multiple range test. […] At each experiment, the EC50 value of ET-1 and the IC50 value of the Compound 1 were calculated by the Logistic regression analysis.

[2] = test system: PPC-1, hormone-refractory human prostate cancer cells; experiment: ET-1-induced cell growth ([3H]-thymidine incorporation) of PPC-1; type: cell-based
Method: PPC-1, hormone-refractory human prostate cancer cells, was used in these experiments (International Journal of Cancer,44,898-903,1989).
DNA synthesis level was measured as the index of cell growth. As DNA synthesis level, the incorporation of [^3H]-labeled thymidine was assayed. The cells were seeded at a density of 1×10^4 cells/well in a 96-well plate using no FCS-added culture medium and cultured for 5 days. Subsequently, vehicle or ET-1 was added to the plate and cultured for 24 hours. Continuously, [^3H-methyl]-thymidine was added at 0.5 μCi/well to the culture and pulse-labeling performed for 6 hours. Continuously, SDS solution to a final concentration of 0.2% was added for solubilization of the cell, and after solubilization the radioactivity of [^3H-methyl]-thymidine used for DNA synthesis was counted with a liquid scintillation counter. As a control, the count of a culture to which the vehicle was added was defined 100%, thus the percentage increase of DNA synthesis was calculated.
In this experiment, ET-1 and Compound 1 were within the concentration ranges of 10^−13 to 10^−6 M (10-fold dilution series) and 10^−10 to 3×10^−6 M (3-fold dilution series), respectively, as the final concentrations thereof. Compound 1 was added about 2 hr before the addition of ET-1.
The results are shown in the form of mean t standard error. The significant difference between groups was analyzed by one-way analysis of variance, and calculated the p-values by the Dunnett's multiple range test. The p-value below 5% was defined as statistically significant. The IC50 value of the Compound 1 were calculated by the Logistic regression analysis.

prostate cancer patients = experiment: Clinical study in prostate cancer patients; type: in vivo, human
Method: A clinical study was carried out under the following conditions using the patients suffering from prostate cancer.
Subjects: eighteen patients of at least 45 years of age with prostate cancer(stage D2) who are hormone-refractory or have relapsed after anti-androgen therapy.
Strength: 2,10 and 40 mg tablets
Dosage: 2,4,10,20,60,120and 240 mg/day-dose frequency was once daily ot twice daily
Duration of treatment: four weeks (28 days)
Parameters for evalution: Evaluations and measurements were made for the following items before and after the administration.
(1) Prostate specific antigen (PSA)
(2) Born metabolism markers (bone alkaline phosphatase or ratio of deoxypyridinoline/creatinine)
(3) Bone pain (change of visual analogue scale(VAS)/use of analgesics)

[3] = Plasma concentration when orally administered to humans; type: in vivo, human
Method: For the purpose of the assessment of the pharmacokinetics, tolerance and safety of Compound 1 when orally administered, the Compound 1 was administered at a single dose of 10 mg to 3 subjects of progressive prostate cancer patients after prostatectomy. So as to assay the plasma concentration of intact Compound 1, blood of 6 ml was collected in a lithium heparin-containing polyethylene tube, prior to administration and at individual times of 30 minutes, one hour, 1.5 hour, 2 hours, 3 hours, 4 hours, 6 hours, 8 hours, 12 hours, 24 hours, 36hours and 48hours after administration, followed by immediate centrifugation (4° C., 10 minutes, 3500 rpm), to recover the plasma. The plasma samples were stored under freezing at −70° C. until the concentration was assayed. The plasma concentration was assayed by the LC-MS/MS method.

human ETA receptor = molecular target: T1, human ETA receptor (Homo sapiens, UniProt P25101); settings: Compound 1: WO97/22595; ABT-627: J.Pharmacol.Exp.Ther.,276,473-481,1996; read-out: affinity to human ETA receptor; cited from earlier work
T1 sequence (P25101 21-427): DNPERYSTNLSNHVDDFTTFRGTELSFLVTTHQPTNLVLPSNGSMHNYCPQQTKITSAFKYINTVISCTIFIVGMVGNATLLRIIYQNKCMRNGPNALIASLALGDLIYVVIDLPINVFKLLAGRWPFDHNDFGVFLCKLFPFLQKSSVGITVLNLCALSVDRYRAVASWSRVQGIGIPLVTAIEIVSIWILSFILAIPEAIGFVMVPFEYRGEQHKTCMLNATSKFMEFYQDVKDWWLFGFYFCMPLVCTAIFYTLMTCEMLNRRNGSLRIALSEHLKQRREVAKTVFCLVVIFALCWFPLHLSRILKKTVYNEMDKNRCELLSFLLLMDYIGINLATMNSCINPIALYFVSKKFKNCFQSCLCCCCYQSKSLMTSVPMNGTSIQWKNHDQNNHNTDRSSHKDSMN

[4] = 2-240 mg/day, four weeks, eighteen patients
[5] = single oral dose 10 mg, prostate cancer patients, plasma

| IC50 ([2]; ET-1 10^−8 M, [3H]-thymidine incorporation, read-out: IC50 of ET-1-induced promotion of PPC-1 cell growth) [nM] | AUC ratio Compound 1 (10 mg)/ABT-627 (20 mg) ([3]; oral, humans, listed as The effective component of the invention) | AUC [3, 5] [ng·h/mL] | Cmax [3, 5] [ng/mL] | T max [3, 5] [h] | T ½ [3, 5] [h] | Compound | IC50 ([1]; ET-1 10^−9 M) [nM] | concentration above which the inhibitory effect was statistically significant ([2]; ET-1 10^−8 M) | effective dose relative to the minimum effective dose of ABT-627 (prostate cancer patients; 2 mg vs 10 mg) | patients with decreased bone specific alkaline phosphatase (prostate cancer patients; [4]) | patients with improved pain score VAS (prostate cancer patients; [4]) | patients with improved prostate cancer marker PSA (prostate cancer patients; [4]) | patients with improved ratio of deoxypyridinoline/creatinine (prostate cancer patients; [4]) | patients with reduced analgesics (prostate cancer patients; [4]) | patients with stabilized PSA (prostate cancer patients; [4]) | dose from which effective (prostate cancer patients; Test Example 5, prostate cancer patients) [mg] | dose from which effective in improving each observed item (prostate cancer patients; oral tablets, four weeks) [mg/day] | Ki (human ETA receptor) [nM] | EC50 ([1]; ET-1 10^−12 to 10^−6 M, WST-1) [nM] | concentration above which the effect of ET-1 on [3H]-thymidine incorporation was statistically significant [2] |
| --- | --- | --- | --- | --- | --- | --- | --- | --- | --- | --- | --- | --- | --- | --- | --- | --- | --- | --- | --- | --- |
| 28 ± 9.8 | about 18 fold | 14700 | 1000 | 2 | 13 | COc1ccccc1Oc1c(NS(=O)(=O)C=Cc2ccccc2)nc(-c2ncccn2)nc1OC.[K] [Compound 1, N-[6-methoxy-5-(2-methoxyphenoxy)-2-(2-pyrimidinyl)-4-pyrimidinyl]-2-phenylethenesulfoneamide•potassium salt] | 9.54 | above 3×10^−7 M | ⅕ | eleven (out of eighteen) | nine (out of eighteen) | ten | fourteen (out of eighteen) | four (out of eighteen) | two | ≥ 2 | ≥ 2 | 0.697 | – | – |
| – | – | – | – | – | – | ET-1: endothelin; induces pain in humans and experimental animals; used as stimulus of pain, Ca2+ increase and cell growth [reference compound] | – | – | – | – | – | – | – | – | – | – | – | – | 0.022 | above 10^−8 M |
